This passage reports MIC results from patent publication US20260083721A1, “7-CYANO-8-HYDROXYQUINOLINE DERIVATIVE, PREPARATION METHOD THEREFOR AND MEDICAL USE THEREOF” (Jiangsu Yahong Meditech Co., Ltd., priority 2022, published 2026).

Format in all cases: cell-based
For test [1], the system named is carbapenem-resistant Acinetobacter baumannii 18-W13-081. As to the kind of experiment: MIC by broth microdilution, carbapenem-resistant A. baumannii 18-W13-081. To be noted: carbapenem-resistant clinical isolate, CAMHB, 35±2° C., 20 hours, drug concentration range 128 mg/L to 0.06 mg/L, read-out: inhibitory MIC value, Acinetobacter baumannii 18-W13-081. The source says: (§1) The test bacteria were 2 strains of carbapenem-resistant Escherichia coli (18-W09-093 and 18-W18-070), 2 strains of carbapenem-resistant Acinetobacter baumannii (18-W15-036 and 18-W13-081), 1 strain of methicillin-resistant Staphylococcus aureus (19-W03-012) and 1 strain of methicillin-sensitive Staphylococcus aureus (19-W01-012), isolated clinically, with duplicate strains isolated from the same patient being excluded. Besides, there were 3 quality control strains, namely Escherichia co/i ATCC 25922, Acinetobacter baumannii ATCC 19606, and Staphylococcus aureus ATCC 29213. The above strains were all provided by Shanghai GenoMatrix Medical Laboratory Co., Ltd.
(§2) The MIC of the compound of the present invention on clinically isolated strains was assayed by the broth microdilution method according to the relevant documents from the Clinical and Laboratory Standards Institute (CLSI) of United States. • 3.1 Preparation of antimicrobial drugs: the compounds of the present invention were all dissolved with DMSO. The drug concentration ranged from 128 mg/L to 0.06 mg/L. • 3.2 Culture medium: cation adjusted Mueller-Hinton broth (CAMHB) was used. • 3.3 Inoculation amount of bacteria: the isolated pure culture of test bacteria cultured overnight was adjusted to 0.5 McFarland turbidity by direct colony suspension and diluted 100 folds, and the final inoculation amount was 10^5 CFU/mL. • 3.4 Culture conditions: the bacteria were cultured in air at 35±2° C. for 20 hours.
(§3) The results of the drug sensitivity test were interpretated according to the standards of CLSI M100-ED29:2019.
(§4) The statistical analysis of the results of the drug sensitivity test was done by using WHONET version 5.6 software.

Test [2] has as its system methicillin-resistant Staphylococcus aureus 19-W03-012. As to the kind of experiment: MIC by broth microdilution, methicillin-resistant S. aureus 19-W03-012. To be noted: methicillin-resistant clinical isolate, CAMHB, 35±2° C., 20 hours, drug concentration range 128 mg/L to 0.06 mg/L, read-out: inhibitory MIC value, Staphylococcus aureus 19-W03-012.
Excerpt: as §1, §2, §3, §4

Test [3] relates to carbapenem-resistant Escherichia coli 18-W09-093. As to the kind of experiment: MIC by broth microdilution, carbapenem-resistant E. coli 18-W09-093. To be noted: carbapenem-resistant clinical isolate, CAMHB, 35±2° C., 20 hours, drug concentration range 128 mg/L to 0.06 mg/L, read-out: inhibitory MIC value, Escherichia coli 18-W09-093.
Excerpt: as §1, §2, §3, §4

In test [4] the test system is Acinetobacter baumannii ATCC19606. As to the kind of experiment: MIC by broth microdilution, A. baumannii ATCC 19606. The conditions noted are these: quality control strain, CAMHB, 35±2° C., 20 hours, drug concentration range 128 mg/L to 0.06 mg/L, read-out: inhibitory MIC value, Acinetobacter baumannii ATCC19606.
Excerpt: as §1, §2, §3, §4

The subject of test [5] is methicillin-sensitive Staphylococcus aureus 19-W01-012. As to the kind of experiment: MIC by broth microdilution, methicillin-sensitive S. aureus 19-W01-012. To be noted: methicillin-sensitive clinical isolate, CAMHB, 35±2° C., 20 hours, drug concentration range 128 mg/L to 0.06 mg/L, read-out: inhibitory MIC value, Staphylococcus aureus 19-W01-012.
Excerpt: as §1, §2, §3, §4

The subject of test [6] is Staphylococcus aureus ATCC29213. The test can be described thus: MIC by broth microdilution, S. aureus ATCC 29213. To be noted: quality control strain, CAMHB, 35±2° C., 20 hours, drug concentration range 128 mg/L to 0.06 mg/L, read-out: inhibitory MIC value, Staphylococcus aureus ATCC29213.
Excerpt: as §1, §2, §3, §4

Test [7] has as its system carbapenem-resistant Acinetobacter baumannii 18-W15-036. As to the kind of experiment: MIC by broth microdilution, carbapenem-resistant A. baumannii 18-W15-036. To be noted: carbapenem-resistant clinical isolate, CAMHB, 35±2° C., 20 hours, drug concentration range 128 mg/L to 0.06 mg/L, read-out: inhibitory MIC value, Acinetobacter baumannii 18-W15-036.
Excerpt: as §1, §2, §3, §4

The test system of test [8] is carbapenem-resistant Escherichia coli 18-W18-070. The test can be described thus: MIC by broth microdilution, carbapenem-resistant E. coli 18-W18-070. To be noted: carbapenem-resistant clinical isolate, CAMHB, 35±2° C., 20 hours, drug concentration range 128 mg/L to 0.06 mg/L, read-out: inhibitory MIC value, Escherichia coli 18-W18-070.
Excerpt: as §1, §2, §3, §4

Test [9] deals with Escherichia coli ATCC25922. As to the kind of experiment: MIC by broth microdilution, E. coli ATCC 25922. To be noted: quality control strain, CAMHB, 35±2° C., 20 hours, drug concentration range 128 mg/L to 0.06 mg/L, read-out: inhibitory MIC value, Escherichia coli ATCC25922.
Excerpt: as §1, §2, §3, §4

In brackets after ≈: the same amount, converted by molar mass. Some results are limits rather than exact numbers.

Turning to `N#Cc1cc(Br)c2cccnc2c1O` [Compound 1, 5-bromo-7-cyano-8-hydroxyquinoline], the MIC in test [1] worked out at 4 µg/mL (≈ 16.1 µM); in [2], 4 µg/mL (≈ 16.1 µM); in test [3], 32 µg/mL (≈ 128 µM); in [4], 4 µg/mL (≈ 16.1 µM); in test [5], 4 µg/mL (≈ 16.1 µM); in test [6] it was 4 µg/mL (≈ 16.1 µM). In addition, the MIC was 16 µg/mL (≈ 64.2 µM) in [7], 32 µg/mL (≈ 128 µM) in test [8] and 8 µg/mL (≈ 32.1 µM) in test [9].
Consider `N#Cc1cc(C(F)(F)F)c2cccnc2c1O` [Compound 2, 5-trifluoromethyl-7-cyano-8-hydroxyquinoline], for which the MIC in test [1] worked out at 32 µg/mL (≈ 134 µM); in test [2], 4 µg/mL (≈ 16.8 µM); in test [3] it was 64 µg/mL (≈ 269 µM); in test [4], 16 µg/mL (≈ 67.2 µM); in test [5] it was 4 µg/mL (≈ 16.8 µM); in test [6], 8 µg/mL (≈ 33.6 µM). Besides, the figures for the MIC in [7], in test [8] and in test [9] were 64 µg/mL (≈ 269 µM), 64 µg/mL (≈ 269 µM) and 32 µg/mL (≈ 134 µM), respectively.
For `Cc1ccnc2c(O)c(C#N)ccc12` [Compound 3, 4-methyl-7-cyano-8-hydroxyquinoline], the MIC came out at 8 µg/mL (≈ 43.4 µM) in test [1]; 8 µg/mL (≈ 43.4 µM) in test [2]; 16 µg/mL (≈ 86.9 µM) in [3]; 8 µg/mL (≈ 43.4 µM) in test [4]; 8 µg/mL (≈ 43.4 µM) in test [5]; 8 µg/mL (≈ 43.4 µM) in test [6]. The MIC in [7] came out at 8 µg/mL (≈ 43.4 µM); in [8], 16 µg/mL (≈ 86.9 µM); in test [9] it was 8 µg/mL (≈ 43.4 µM).
`N#Cc1ccc2ccc(F)nc2c1O` [Compound 4, 2-fluoro-7-cyano-8-hydroxyquinoline]: the MIC turned out to be 8 µg/mL (≈ 42.5 µM) in test [1]; 16 µg/mL (≈ 85 µM) in [2]; 16 µg/mL (≈ 85 µM) in [3]; 4 µg/mL (≈ 21.3 µM) in test [4]; 16 µg/mL (≈ 85 µM) in [5]; 16 µg/mL (≈ 85 µM) in test [6]. The results for the MIC in [7], in [8] and in [9] were 8 µg/mL (≈ 42.5 µM), 16 µg/mL (≈ 85 µM) and 8 µg/mL (≈ 42.5 µM), respectively.
As for `Cc1ccnc2c(O)c(C#N)cc(Cl)c12` [Compound 5, 4-methyl-5-chloro-7-cyano-8-hydroxyquinoline], the MIC in test [1] was found to be 2 µg/mL (≈ 9.15 µM); in test [2], 2 µg/mL (≈ 9.15 µM); in test [3] it was 32 µg/mL (≈ 146 µM); in [4], 4 µg/mL (≈ 18.3 µM); in test [5], 4 µg/mL (≈ 18.3 µM); in test [6], 4 µg/mL (≈ 18.3 µM). For the same compound, the MIC in [7] was 8 µg/mL (≈ 36.6 µM); in [8], 16 µg/mL (≈ 73.2 µM); in [9], 8 µg/mL (≈ 36.6 µM).
In the case of `Cc1ccnc2c(O)c(C#N)cc(Br)c12` [Compound 6, 4-methyl-5-bromo-7-cyano-8-hydroxyquinoline], the MIC in test [1] turned out to be 4 µg/mL (≈ 15.2 µM); in test [2], 2 µg/mL (≈ 7.6 µM); in test [3] it was 32 µg/mL (≈ 122 µM); in [4] it was 4 µg/mL (≈ 15.2 µM); in test [5], 4 µg/mL (≈ 15.2 µM); in test [6], 4 µg/mL (≈ 15.2 µM). Moreover, the minimal inhibitory concentration (MIC) in [7] amounted to 32 µg/mL (≈ 122 µM); in [8], 32 µg/mL (≈ 122 µM); in test [9], 8 µg/mL (≈ 30.4 µM).
As for `N#Cc1c(Cl)c(Cl)c2cccnc2c1O` [Compound 7, 5,6-dichloro-7-cyano-8-hydroxyquinoline], the minimal inhibitory concentration (MIC) in test [1] is 4 µg/mL (≈ 16.7 µM); in test [2] it was 0.5 µg/mL (≈ 2.09 µM); in test [3] it was over 64 µg/mL; in test [4], 2 µg/mL (≈ 8.37 µM); in test [5], 0.5 µg/mL (≈ 2.09 µM); in test [6] it was 1 µg/mL (≈ 4.18 µM). Further, the MIC in [7] was 32 µg/mL (≈ 134 µM); in [8], over 64 µg/mL; in test [9], 32 µg/mL (≈ 134 µM).
On to `N#Cc1cc(C(=O)O)c2cccnc2c1O` [Compound 8, 7-cyano-8-hydroxyquinoline-5-carboxylic acid], for which the MIC in test [1], in test [2], in test [3], in [4], in test [5] and in test [6] was over 64 µg/mL throughout. The minimal inhibitory concentration (MIC) in test [7], in [8] and in test [9] was over 64 µg/mL each time.
For the compound `N#Cc1cc(Cl)c2cccnc2c1O` [Compound 9, 5-chloro-7-cyano-8-hydroxyquinoline], the MIC in test [1] was determined as 8 µg/mL (≈ 39.1 µM); in test [2], 8 µg/mL (≈ 39.1 µM); in test [3], 32 µg/mL (≈ 156 µM); in test [4], 4 µg/mL (≈ 19.5 µM); in [5] it was 8 µg/mL (≈ 39.1 µM); in test [6], 8 µg/mL (≈ 39.1 µM). Besides, the figures for the MIC in [7], in test [8] and in [9] were 16 µg/mL (≈ 78.2 µM), 32 µg/mL (≈ 156 µM) and 16 µg/mL (≈ 78.2 µM), respectively.
For `Cc1cc(C#N)c(O)c2ncccc12` [Compound A, reference compound], the MIC in [1] turned out to be 4 µg/mL (≈ 21.7 µM); in [2], 4 µg/mL (≈ 21.7 µM); in test [3], 8 µg/mL (≈ 43.4 µM); in [4], 4 µg/mL (≈ 21.7 µM); in [5], 4 µg/mL (≈ 21.7 µM); in test [6], 4 µg/mL (≈ 21.7 µM). Moreover, the values for the minimum inhibitory concentration (MIC) in test [7], in test [8] and in test [9] were 8 µg/mL (≈ 43.4 µM), 16 µg/mL (≈ 86.9 µM) and 8 µg/mL (≈ 43.4 µM), respectively.
